Experimental data: PubChem BioAssay AID248 (DTP/NCI, 2004)
Inconclusive results and toxic doses are left out. Rule as the data show it: active = T/C of 150% or more; inactive = T/C below 125%.

System: L1210 leukemia ip in BDF1 mice, survival T/C
Assay: NCI In Vivo Anticancer Drug Screen. Data for tumor model L1210 Leukemia (intraperitoneal) in B6D2F1 (BDF1) mice
Settings: endpoint: mean survival time, higher = longer survival
Procedure, shortened: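 Antitumor effect is assessed in tumor-bearing animals. Survival in the compound arm is compared with a vehicle-dosed control arm and expressed as their quotient.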

[1] = dose: 100.0 mg/kg/injection, schedule: Q01DX009 (ip), vehicle: Klucel (hydroxypropylcellulose) (HPC)
[2] = dose: 100.0 mg/kg/injection, schedule: Q04DX003 (ip), vehicle: Klucel (hydroxypropylcellulose) (HPC)
[3] = dose: 200.0 mg/kg/injection, schedule: Q01DX009 (ip), vehicle: Klucel (hydroxypropylcellulose) (HPC)
[4] = dose: 200.0 mg/kg/injection, schedule: Q04DX003 (ip), vehicle: Klucel (hydroxypropylcellulose) (HPC)
[5] = dose: 400.0 mg/kg/injection, schedule: Q01DX009 (ip), vehicle: Klucel (hydroxypropylcellulose) (HPC)
[6] = dose: 400.0 mg/kg/injection, schedule: Q04DX003 (ip), vehicle: Klucel (hydroxypropylcellulose) (HPC)
[7] = dose: 100.0 mg/kg/injection, schedule: Q01DX001 (ip), vehicle: saline
[8] = dose: 200.0 mg/kg/injection, schedule: Q01DX001 (ip), vehicle: saline
[9] = dose: 100.0 mg/kg/injection, schedule: Q01DX009 (ip), vehicle: saline with Tween-80
[10] = dose: 200.0 mg/kg/injection, schedule: Q01DX009 (ip), vehicle: saline with Tween-80
[11] = dose: 400.0 mg/kg/injection, schedule: Q01DX009 (ip), vehicle: saline with Tween-80
[12] = dose: 100.0 mg/kg/injection, schedule: Q01DX001 (ip), vehicle: Klucel (hydroxypropylcellulose) (HPC)
[13] = dose: 200.0 mg/kg/injection, schedule: Q01DX001 (ip), vehicle: Klucel (hydroxypropylcellulose) (HPC)
[14] = dose: 400.0 mg/kg/injection, schedule: Q01DX001 (ip), vehicle: Klucel (hydroxypropylcellulose) (HPC)
[15] = dose: 100.0 mg/kg/injection, schedule: Q04DX003 (ip), vehicle: saline with Tween-80
[16] = dose: 200.0 mg/kg/injection, schedule: Q04DX003 (ip), vehicle: saline with Tween-80
[17] = dose: 400.0 mg/kg/injection, schedule: Q04DX003 (ip), vehicle: saline with Tween-80
[18] = dose: 100.0 mg/kg/injection, schedule: Q04DX003 (ip), vehicle: other
[19] = dose: 200.0 mg/kg/injection, schedule: Q04DX003 (ip), vehicle: other
[20] = dose: 400.0 mg/kg/injection, schedule: Q04DX003 (ip), vehicle: other

Measured: T/C

Oc1ccccc1CNCc1ccccc1O
inactive: dose: 75.0 mg/kg/injection, schedule: Q01DX001 (ip), vehicle: saline 96 % of control | dose: 150.0 mg/kg/injection, schedule: Q01DX001 (ip), vehicle: saline 96 % of control

CC1(C)CC(=O)CC(C)(C)N1O
inactive: [1] 94 % of control | [2] 101 % of control | [3] 98 % of control | [4] 94 % of control | [5] 100 % of control | [6] 94 % of control

CC(C)(C)/C([O-])=N/[N+](C)(C)Cc1ccccc1
inactive: [7] 97 % of control | [8] 98 % of control | dose: 400.0 mg/kg/injection, schedule: Q01DX001 (ip), vehicle: saline 98 % of control

CC(C)(C)/[N+]([O-])=[N+](\[O-])C(C)(C)C (tested in a mixture with another compound)
inactive: [9] 98 % of control | [2] 100 % of control | [10] 105 % of control | [4] 96 % of control | [11] 90 % of control

O=S(=O)(Nc1ccc(N(c2c(Cl)c(Cl)c(NS(=O)(=O)c3ccccc3)c(Cl)c2Cl)S(=O)(=O)c2ccccc2)cc1)c1ccccc1
inactive: [12] 93 % of control | [13] 96 % of control | [14] 95 % of control

COc1cc2c(cc1OC)C(CCN1C(=O)CCC1=O)NCC2 (stereo not given)
inactive: [9] 92 % of control | [10] 98 % of control

O=C(C1CC=CCC1)N1CCCC1 (stereo not given)
inactive: dose: 100.0 mg/kg/injection, schedule: Q04DX002 (ip), vehicle: saline 101 % of control | dose: 200.0 mg/kg/injection, schedule: Q04DX002 (ip), vehicle: saline 104 % of control | dose: 400.0 mg/kg/injection, schedule: Q04DX002 (ip), vehicle: saline 104 % of control

Cc1ccc([N+](=O)[O-])cc1NC(=O)Nc1ccc(CCO)cc1
inactive: [1] 90 % of control | [3] 93 % of control

[B-][N+]12CC[N+]([B-])(CC1)CC2
inactive: dose: 0.06 mg/kg/injection, schedule: Q01DX009 (ip), vehicle: saline sonified 98 % of control | dose: 0.06 mg/kg/injection, schedule: Q04DX003 (ip), vehicle: saline sonified 113 % of control | dose: 0.13 mg/kg/injection, schedule: Q01DX009 (ip), vehicle: saline sonified 96 % of control | dose: 0.13 mg/kg/injection, schedule: Q04DX003 (ip), vehicle: saline sonified 96 % of control | dose: 0.25 mg/kg/injection, schedule: Q01DX009 (ip), vehicle: saline sonified 100 % of control | dose: 0.25 mg/kg/injection, schedule: Q04DX003 (ip), vehicle: saline sonified 103 % of control

ClC(Cl)=C(Cl)c1ccccc1
inactive: dose: 25.6 mg/kg/injection, schedule: Q04DX002 (ip), vehicle: saline with Tween-80 93 % of control | dose: 64.0 mg/kg/injection, schedule: Q04DX002 (ip), vehicle: saline with Tween-80 87 % of control | [15] 98 % of control | dose: 160.0 mg/kg/injection, schedule: Q04DX002 (ip), vehicle: saline with Tween-80 90 % of control | [16] 93 % of control | dose: 400.0 mg/kg/injection, schedule: Q04DX002 (ip), vehicle: saline with Tween-80 93 % of control | [17] 93 % of control

CCOc1ccc(Nc2cccc3ccccc23)cc1
inactive: dose: 100.0 mg/kg/injection, schedule: Q04DX002 (ip), vehicle: Klucel (hydroxypropylcellulose) (HPC) 94 % of control | dose: 200.0 mg/kg/injection, schedule: Q04DX002 (ip), vehicle: Klucel (hydroxypropylcellulose) (HPC) 88 % of control | dose: 400.0 mg/kg/injection, schedule: Q04DX002 (ip), vehicle: Klucel (hydroxypropylcellulose) (HPC) 98 % of control

OCc1ccc(OCc2ccccc2)c(OCc2ccccc2)c1
inactive: dose: 100.0 mg/kg/injection, schedule: Q01DX009 (ip), vehicle: other 87 % of control | [18] 94 % of control | [19] 98 % of control | [20] 90 % of control

NNC(=O)CCCc1ccccc1
inactive: dose: 25.0 mg/kg/injection, schedule: Q01DX009 (ip), vehicle: saline 97 % of control | dose: 50.0 mg/kg/injection, schedule: Q01DX009 (ip), vehicle: saline 103 % of control | [7] 105 % of control

O=C(Nc1cccc2ccccc12)c1ccccc1F
inactive: [1] 95 % of control | [3] 92 % of control | [5] 104 % of control

O=[N+]([O-])c1ccccc1NS(=O)(=O)c1ccccc1
inactive: [9] 95 % of control | [15] 93 % of control | [10] 96 % of control | [16] 97 % of control | [11] 98 % of control | [17] 97 % of control

CC(C)CC(C)NCCOC(=O)c1ccc(N)cc1 (stereo not given)
inactive: dose: 9.38 mg/kg/injection, schedule: Q01DX001 (ip), vehicle: other 104 % of control | dose: 18.75 mg/kg/injection, schedule: Q01DX001 (ip), vehicle: other 96 % of control | dose: 37.5 mg/kg/injection, schedule: Q01DX001 (ip), vehicle: other 106 % of control | dose: 75.0 mg/kg/injection, schedule: Q01DX001 (ip), vehicle: carboxymethylcellulose (CMC) 96 % of control

COC1OC2COc3ccccc3OC2C(N=Cc2ccccc2)C1O (stereo not given)
inactive: [15] 102 % of control | [16] 102 % of control | [17] 98 % of control

CCOC(=O)c1cc2ccccc2n1-c1ccccc1
inactive: [9] 111 % of control | [10] 104 % of control | [11] 104 % of control

Nc1ccc(SCc2nc3cccc4c3n2CCC4)cc1
inactive: [9] 88 % of control | [15] 96 % of control | [10] 96 % of control | [16] 94 % of control | [11] 105 % of control | [17] 92 % of control

CCc1occ(C(=O)N2Cc3cc4ccccc4nc3C2)c1C1SCCS1
inactive: [7] 89 % of control | [8] 92 % of control

O=C(C[N+]12CN3CN(CN(C3)C1)C2)c1ccc(Br)cc1
inactive: dose: 100.0 mg/kg/injection, schedule: Q01DX005 (ip), vehicle: Klucel (hydroxypropylcellulose) (HPC) 103 % of control | [1] 111 % of control | dose: 200.0 mg/kg/injection, schedule: Q01DX005 (ip), vehicle: Klucel (hydroxypropylcellulose) (HPC) 109 % of control | [3] 107 % of control | dose: 400.0 mg/kg/injection, schedule: Q01DX005 (ip), vehicle: Klucel (hydroxypropylcellulose) (HPC) 111 % of control

CC(CN1c2ccccc2Sc2ccccc21)[N+](C)(C)C (stereo not given)
inactive: [7] 88 % of control

Nc1nc(N)c(C=O)c(Nc2ccc(Br)cc2)n1
inactive: dose: 50.0 mg/kg/injection, schedule: Q01DX001 (ip), vehicle: alcohol 110 % of control | dose: 100.0 mg/kg/injection, schedule: Q01DX001 (ip), vehicle: alcohol 96 % of control | dose: 200.0 mg/kg/injection, schedule: Q01DX001 (ip), vehicle: alcohol 94 % of control | dose: 400.0 mg/kg/injection, schedule: Q01DX001 (ip), vehicle: alcohol 90 % of control

CC(=O)c1cc(C(C)=O)c2cc(C)cc(O)c2c1O
inactive: [7] 103 % of control

O=C(NC(=S)Nc1cccc(Cl)c1)c1cccc([N+](=O)[O-])c1
inactive: [1] 103 % of control | [2] 105 % of control | [3] 100 % of control | [4] 97 % of control | [5] 100 % of control | [6] 95 % of control

C#CCN1CCC2=C(C1)c1c(O)cc(C(C)C(C)CCCCC)cc1OC2(C)C (stereo not given)
inactive: [12] 95 % of control | [13] 92 % of control | [14] 103 % of control

N\C([S-])=N/N=C\C(=N/N=C(\N)[S-])C(O)C(O)C(O)CO.[Rh+2] (stereo not given)
inactive: [18] 106 % of control | [19] 93 % of control | [20] 98 % of control

CN(CCC#N)c1ccc(/C=C(\C#N)c2ccc(Br)cc2)cc1
inactive: [1] 94 % of control | [3] 94 % of control | [5] 96 % of control

CN(CCN(C)CP(c1ccccc1)c1ccccc1)CP(c1ccccc1)c1ccccc1
inactive: dose: 100.0 mg/kg/injection, schedule: Q04DX002 (sc), vehicle: olive oil, sesame oil, peanut oil 96 % of control | dose: 200.0 mg/kg/injection, schedule: Q04DX002 (sc), vehicle: olive oil, sesame oil, peanut oil 104 % of control | dose: 400.0 mg/kg/injection, schedule: Q04DX002 (sc), vehicle: olive oil, sesame oil, peanut oil 110 % of control
